Values joined by “and” are separate entries in the source; they are usually repeats but may differ in a detail not shown here. Equal values may be shown once. *1 amine or outer side, *2 acyl side, *3 side chain or, on linkers, in order; H or OH if unused. Where a SMILES comes first, the peptide text is derived from it. Bridges are numbered along the chain shown (N, C = ends). Where no end group is shown, it is not given here. [ ]: non-standard residue; d: D form. ξ: configuration not given here. mXylylene = c1cc(C[*:1])cc(C[*:2])c1; Nle = CCCC[C@H](N)C(=O)O; ξP = O=C(O)C1CCCN1

The record followed here is patent US20260191974A1, “B7-H3 TARGETING LIGANDS AND METHODS OF USE” (The University of North Carolina at Chapel Hill, priority 2022, published 2026).

Series [1] can be described thus: Serum stability in 50% fetal bovine serum. In kind it is in vitro ADME. The conditions noted are these: 37° C., read-out: peptide remaining intact. The protocol: Serum stability of JP3 and JP5 was assessed. Peptides (JP3 or JP5) were incubated in 50% fetal bovine serum (diluted in media) at 37° C. and samples were taken over a time course spanning 24 h. Samples were mixed with cold methanol to crash out serum protein, and the supernatant containing the peptides was collected and run on MS to determine the amount of peptide present at each time point.

In series [2] the target is T1, B7-H3 (Homo sapiens, UniProt Q5ZPR3).
T1 sequence (Q5ZPR3 29-534): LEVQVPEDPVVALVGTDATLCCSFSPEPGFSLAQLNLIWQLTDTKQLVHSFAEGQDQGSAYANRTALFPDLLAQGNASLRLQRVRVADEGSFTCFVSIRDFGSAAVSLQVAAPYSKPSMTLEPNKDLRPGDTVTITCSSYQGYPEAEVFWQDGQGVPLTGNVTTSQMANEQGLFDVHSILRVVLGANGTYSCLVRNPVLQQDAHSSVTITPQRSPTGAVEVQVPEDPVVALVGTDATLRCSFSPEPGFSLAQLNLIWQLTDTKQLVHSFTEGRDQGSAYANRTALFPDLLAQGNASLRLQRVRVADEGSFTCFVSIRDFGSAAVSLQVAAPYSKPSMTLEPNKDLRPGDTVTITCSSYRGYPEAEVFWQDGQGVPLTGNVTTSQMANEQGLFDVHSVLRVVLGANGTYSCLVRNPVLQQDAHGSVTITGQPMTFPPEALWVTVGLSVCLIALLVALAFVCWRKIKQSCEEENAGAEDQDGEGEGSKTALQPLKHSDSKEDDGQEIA
In words: mRNA display validation assay of NGS hits against B7-H3. In kind it is binding. Conditions: naïve NNK10 library as a control. The text has this:
FIGS. 11A-11F. Dibromoxylene (DBX) mediated B7-H3 selection. (FIG. 11A) Selection schematic details the selection process for identifying binders against B7-H3 using DBX. (FIG. 11B) qPCR results of the DBX mediated B7-H3 selection. (FIG. 11C) Mean frequency vs. number of sequences. (FIG. 11D) NGS data of the selection hits from Selections (rounds 3 and 5), named sequences indicate sequences purchased for binding validation. (FIG. 11E) Validation assay identified hits from NGS data run through the selection process (outlined in (FIG. 11A)), with the naïve NNK10 library as a control.
A background screen against selection components is carried out prior to the selection against B7-H3 to remove non-specific binders. FIG. 11D includes sequences from NGS data with named sequences evaluated for binding validation. […] Exemplary DBX hit structures are shown in FIG. 12, with points of cargo attachment designated with arrows.

Series [3] relates to Raji cells expressing murine B7-H3. The series can be described thus: Live imaging with GFP-tagged endosome/lysosome reporters in Raji cells expressing murine B7-H3. In kind it is cell-based. Conditions: JP3-PEG-TAMRA or JP5-PEG-TAMRA at 250 nM for 5 hours. The protocol:
FIGS. 22A-22B. Live imaging of an example targeting ligand uptake in Raji cells expressing murine B7-H3 pre-incubated with GFP-tagged reporters for early (Rab5a) and late (Rab7a) endosomes or early (Lamp1) lysosomes. Cells were treated with JP3-PEG-TAMRA (FIG. 22A) or JP5-PEG-TAMRA (FIG. 22B) at 250 nM for 5 hours, cytospun with live cell imaging subsequently performed.
Live imaging of an example targeting ligand uptake in Raji cells expressing murine B7-H3 pre-incubated with GFP-tagged reporters for early (Rab5a) and late (Rab7a) endosomes or early (Lamp1) lysosomes is shown in FIG. 22A (JP3) and FIG. 22B (JP5).

Series [4] deals with human and murine B7-H3. The series can be described thus: Ka (M^-1s^-1). The protocol:
(§1) Table printed on a drawing sheet, FIG. 24C
Head of the field: Ka (M^-1s^-1)
(§2) The patent's description of the figure: FIGS. 24A-24C. SPR analysis of the selected peptides B1.1 and JP5. The B1.1 variant was analyzed at analyte concentrations of 7.5, 15, 30, 60, and 120 nM (FIG. 24A) and the JP5 variant was analyzed at analyte concentrations of 22.2, 66.6, 200, 600 and 1800 nM (FIG. 24B). (FIG. 24C) Binding kinetics of each peptide.
(§3) First copying reader's note: Bracket lines drawn over and under the sequences mark ring closures that the text cells cannot show: C-C above and Q-K below in oxidized B1.1, Q-K below only in reduced B1.1, and C-C above in JP5.
(§4) Where the first naming reader finds the target: passage: Surface plasmon resonance was used to evaluate binding of B1.1 and JP5 to both human and murine B7-H3 (FIGS. 24A-24C)

The test system of series [5] is B7-H3. The series can be described thus: kd (s^-1). An excerpt: (§5) Table printed on a drawing sheet, FIG. 4F
Head of the field: kd (s^-1)
(§6) The patent's description of the figure: FIGS. 4A-4G. (FIG. 4A) Selection schematic detailing the selection process for identifying binders against B7-H3. (FIG. 4B) qPCR results of the mTG mediated B7-H3 selection. (FIG. 4C) B7-H3 selection results and complete NGS analysis of B7-H3 hits. (FIG. 4D) NGS data of the selection hits. […] Arrow indicates the peptide pursued for binding validation. (FIG. 4E) EIC ([M+2], 948.91 m/z) traces corresponding to the product of the mTG reaction with linear B1.1 peptide and the synthetic lactam, disulfide peptide. (FIG. 4F) Surface Plasmon Resonance (SPR) analysis of the selected peptide (B1.1), the Met9Nle variant, and the linear variant. […] The selected B1.1 and the Met9Nle variant were analyzed at analyte concentrations of 7.5, 15, 30, 60, 120 nM. The linear variant was analyzed at analyte concentrations of 50, 100, 200, 400, 800 nM. […] (FIG. 4G) Individual SPR curves. Fitted curve and raw data are shown.
(§7) First copying reader's note: Brackets drawn on the SELECTED and MET9NLE sequences join C to C (above) and Q to K (below), marking a bicyclic peptide; LINEAR has no brackets.
(§8) Where the first naming reader finds the target: passage: Binding affinities were assessed for each peptide by surface plasmon resonance (SPR) against biotinylated B7-H3.

The subject of series [6] is B7-H3. In words: ka (M^-1s^-1).
Description: as §5
Head of the field: ka (M^-1s^-1)
as §6, §7, §8

The next series addresses T2, biotinylated B7-H3 (Homo sapiens, UniProt Q5ZPR3).
T2 sequence (Q5ZPR3 29-534): T1 sequence (Q5ZPR3 29-534)
The series can be described thus: Surface Plasmon Resonance (SPR) analysis against biotinylated B7-H3. The conditions noted are these: biotinylated B7-H3, 25° C., 1:1 binding kinetics model.
Description: as §6, with “FIGS.” for “The patent's description of the figure: FIGS.”
Surface Plasmon Resonance (SPR) analysis. Binding kinetics between our selected peptide (and variants) and biotinylated B7-H3 (B7-H3b) were assessed through SPR analysis using a BIACORE 8K SPR system (GE Healthcare). The running buffer was 1×PBS pH7.5, 0.05% TWEEN® 20 and all analysis was carried out at 25° C. B7-H3b was loaded onto a NeutrAvidin SPR Chip (Series S Sensor Chip NA, 29407997, Cytiva) at a flow rate of […] to a surface density of 1000-1500 response units. Analyte was then injected over a series of five concentrations and quantified by BIACORE single-cycle kinetics method. For our selected peptide (B1.1) and the Met9Nle variant a range of 7.5, 15, 30, 60, 120 nM were run. For the linear variant concentrations of 50, 100, 200, 400, 800 nM were run. Binding sonograms were generated using a standard 1:1 binding kinetics model and kinetics constants determined using standard BIACORE evaluation software.

The target of series [7] is human and murine B7-H3. The series can be described thus: KD (nM). The method, then:
as §1
Head of the field: KD (nM)
as §2, §3, §4

What is called share remaining is what is left of the initial amount, in per cent. Turning to `CC[C@H](C)[C@@H]1NC(=O)[C@@H](NC(C)=O)CSCc2cccc(c2)CSC[C@@H](C(=O)NCC(=O)O)NC(=O)[C@@H]2CCCN2C(=O)[C@H](CC(C)C)NC(=O)[C@H](Cc2ccccc2)NC(=O)[C@H](CCCNC(=N)N)NC(=O)C2CCCN2C(=O)[C@H]([C@@H](C)CC)NC(=O)[C@H](CCCNC(=N)N)NC(=O)[C@H]([C@@H](C)O)NC(=O)[C@H](Cc2c[nH]c3ccccc23)NC(=O)[C@H](C(C)C)NC1=O` (stereo partly drawn) [JP3, N-terminal acetylated CIVWTRIPRFLPCG] (Ac-CIVWTRI[ξP]RFLPCG-OH; linker 1-13 via mXylylene), the fraction remaining at 24 h in series [1] was about 40%. Further, the “binding in validation assay” value on B7-H3 [2] was “strong B7-H3 binders”. The “subcellular localization (Rab5a, Rab7a, Lamp1 reporters)” value in series [3] was “Co-localization of JP3 and Rab5a”.
In the case of `CC[C@H](C)[C@@H]1NC(=O)[C@H](CC(=O)O)NC(=O)[C@H](CCCNC(=N)N)NC(=O)[C@H]([C@@H](C)CC)NC(=O)[C@H]([C@@H](C)O)NC(=O)[C@H](Cc2c[nH]c3ccccc23)NC(=O)[C@@H](NC(C)=O)CSCc2cccc(c2)CSC[C@@H](C(=O)NCC(=O)O)NC(=O)[C@H](CCCNC(=N)N)NC(=O)[C@H]([C@@H](C)O)NC(=O)CNC(=O)[C@H](CC(N)=O)NC1=O` [JP5, N-terminal acetylated CWTIRDINGTRCG] (Ac-CWTIRDINGTRCG-OH; linker 1-12 via mXylylene; N-terminus and C-terminus assumed), in series [1], the amount remaining at 24 h amounted to 80%. The “binding in validation assay” value at B7-H3 [2] is “strong B7-H3 binders”. Moreover, the “subcellular localization (Rab5a, Rab7a, Lamp1 reporters)” value in series [3] is reported as “predominantly cell surface localization of JP5 was observed with some rare evidence of endosomal uptake”. Further, the “Ka (M^-1s^-1)” value in the series on human and murine B7-H3 [4] is 1.25e^5 and 1.02e^5.
Take `CCCC[C@@H]1NC(=O)[C@H](CO)NC(=O)[C@H](Cc2c[nH]cn2)NC(=O)[C@@H]2CSSC[C@H](NC(=O)[C@H]([C@@H](C)O)NC(=O)[C@H](Cc3ccc(O)cc3)NC(=O)[C@H](Cc3ccccc3)NC1=O)C(=O)N[C@H](C(=O)N[C@@H](CO)C(=O)NCC(N)=O)CCCCNC(=O)CC[C@H](NC(=O)[C@H](CC(C)C)NC(=O)[C@H](C)NC(=O)[C@H](Cc1c[nH]c3ccccc13)NC(C)=O)C(=O)N[C@@H](CC(C)C)C(=O)N2` [Met9Nle variant, acWALQLCHSNleFYTCKSG] (Ac-WALELCHS[Nle]FYTCKSG-NH2; lactam 4-14; disulfide 6-13): the “kd (s^-1)” value with B7-H3 [5] was determined as 4.48e^-2. Further, the “ka (M^-1s^-1)” value in the series with B7-H3 [6] was found to be 9.55e^5. Also, the “binding affinity towards B7-H3” value on biotinylated B7-H3 is given as “similar”. Also, at biotinylated B7-H3 (read-out: binding affinity towards B7-H3), the Kd is 46.9 nM.
As to “acWALQLCHSNleFYTCKSGK(AZO)G [OXIDIZED B1.1 | 296]”, the Kd at human and murine B7-H3 [7] amounted to 161 nM.
Consider “acWALQLCHSNleFYTCKSGK(AZO)G [REDUCED B1.1 | 294]”, for which the “Ka (M^-1s^-1)” value in the series on human and murine B7-H3 [4] was 7.444e^7.
Consider “linear variant of B1.1: linear form of B1.1 without lactam and disulfide cyclization (WALQLCHSMFYTCKSG-NH2; cysteine pairing not given here)”, for which the “binding affinity towards B7-H3” value is listed as “no detectable binding interaction” with biotinylated B7-H3 and “did not bind” with biotinylated B7-H3 (listed as linear precursor peptide).
